pEC50, pIC50: −log10 of the molar value. Some results are limits rather than exact numbers.

For test [1], the system named is NCI-H358 cells (K-Ras G12C). Kind of test: Potency assay: pERK in NCI-H358 cells. As to conditions: Homo sapiens, NCI-H358; H358 KRAS G12C; read-out: pERK EC50. In kind it is cell-based, human. Summed up:
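pERK decrease read by AlphaLISA SureFire p-ERK1/2 or In-Cell Western after 4 h compound exposure at 37 °C, 5% CO2.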

A further test addresses KRAS WT (Homo sapiens (Human), UniProt P01116+P62937). Nature of the test: Ras-Raf (BRAF RBD) disruption / FRET / MOA assay, KRAS WT. In kind it is biochemical. To be noted: read-out: IC50* KRAS WT FRET data. Summed up: (§1)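 TR-FRET read-out: a drop in ratio relative to DMSO wells marks disruption of the Ras:RAF complex, reported as IC50. Compounds (3-fold series, 10 points, top 30 μM final) incubated 3 h at 25° C before Eu-anti-His 10 nM and APC-anti-GST 50 nM, 1.5 h more.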

In a further test the target is KRAS G12D (Homo sapiens (Human), UniProt P01116+P62937, G12D). Nature of the test: Ras-Raf (BRAF RBD) disruption / FRET / MOA assay, KRAS G12D. In kind it is biochemical. To be noted: Ras-Raf disruption/FRET/MOA assay; class symbols; read-out: KRAS G12D FRET data IC50. In outline:
as §1

For the next test, the target named is NRAS G12C (Homo sapiens (Human), UniProt P01111+P62937, G12C). Nature of the test: Ras-Raf (BRAF RBD) disruption / FRET / MOA assay, NRAS G12C. In kind it is biochemical. As to conditions: read-out: IC50* NRAS G12C FRET data. Summed up: as §1
The next test deals with K-Ras G12C (Homo sapiens (Human), UniProt P01116+P62937, G12C). Kind of test: Ras-Raf (BRAF RBD) disruption / FRET / MOA assay, KRAS G12C. As to conditions: KRAS G12C; Ras-Raf disruption/FRET/MOA assay; read-out: IC50* KRAS G12C FRET data. In kind it is biochemical. In outline:
as §1

Another test has as its target K-Ras G13C (Homo sapiens (Human), UniProt P01116+P62937, G13C). Kind of test: Ras-Raf (BRAF RBD) disruption / FRET / MOA assay, KRAS G13C. In kind it is biochemical. As to conditions: KRAS G13C; Ras-Raf disruption/FRET/MOA assay; read-out: IC50* KRAS G13C FRET data. Summed up: as §1
The subject of the next test is NCI-H358 (K-Ras G12C). Nature of the test: CellTiter-Glo cell viability assay, NCI-H358. In kind it is cell-based, human. To be noted: Homo sapiens, NCI-H358, 120 h, NCI-H358, 5-day treatment; class symbols; read-out: Additional H358 Cell Viability assay data (K-Ras G12C, IC50). In outline: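 Cells seeded, compound added directly, 5-day exposure. Plates to RT ~30 min, CellTiter-Glo luminescence read. Normalized to DMSO avg (x100); 4-parameter logistic fit.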

The target in another test is KRAS G12S (Homo sapiens (Human), UniProt P01116+P62937, G12S). Nature of the test: Ras-Raf (BRAF RBD) disruption / FRET / MOA assay, KRAS G12S. In kind it is biochemical. As to conditions: Ras-Raf disruption/FRET/MOA assay; class symbols; read-out: KRAS G12S FRET data IC50. In outline: as §1
For another test, the target named is KRAS G12V (Homo sapiens (Human), UniProt P01116+P62937, G12V). Kind of test: Ras-Raf (BRAF RBD) disruption / FRET / MOA assay, KRAS G12V. In kind it is biochemical. As to conditions: read-out: IC50* KRAS G12V FRET data. Summed up:
as §1

For the next test, the target named is KRAS G13D (Homo sapiens (Human), UniProt P01116+P62937, G13D). Kind of test: Ras-Raf (BRAF RBD) disruption / FRET / MOA assay, KRAS G13D. As to conditions: read-out: IC50* KRAS G13D FRET data. In kind it is biochemical. In outline: as §1
Sequence of KRAS G13D (P01116-2 other isoform, or with tags, fused parts or gaps G13D): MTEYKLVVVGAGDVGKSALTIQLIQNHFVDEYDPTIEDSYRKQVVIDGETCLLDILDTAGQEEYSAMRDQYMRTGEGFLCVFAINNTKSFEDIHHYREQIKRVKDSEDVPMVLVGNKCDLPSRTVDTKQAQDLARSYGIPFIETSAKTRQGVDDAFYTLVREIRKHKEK
Sequence of KRAS G13D (P62937 whole entry): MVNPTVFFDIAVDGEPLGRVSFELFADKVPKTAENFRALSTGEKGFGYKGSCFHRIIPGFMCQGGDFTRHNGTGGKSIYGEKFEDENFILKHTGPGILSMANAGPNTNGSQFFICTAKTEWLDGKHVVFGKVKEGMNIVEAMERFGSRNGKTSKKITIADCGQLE

Sequence of K-Ras G13C (P01116-2 other isoform, or with tags, fused parts or gaps G13C): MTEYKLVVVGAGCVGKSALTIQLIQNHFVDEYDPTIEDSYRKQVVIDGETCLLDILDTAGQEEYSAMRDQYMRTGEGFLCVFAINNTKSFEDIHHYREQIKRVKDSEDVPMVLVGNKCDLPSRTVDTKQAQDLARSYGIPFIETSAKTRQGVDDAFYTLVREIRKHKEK
Sequence of K-Ras G13C (P62937 whole entry): as the sequence (P62937 whole entry) above
Sequence of KRAS G12D (P01116-2 other isoform, or with tags, fused parts or gaps G12D): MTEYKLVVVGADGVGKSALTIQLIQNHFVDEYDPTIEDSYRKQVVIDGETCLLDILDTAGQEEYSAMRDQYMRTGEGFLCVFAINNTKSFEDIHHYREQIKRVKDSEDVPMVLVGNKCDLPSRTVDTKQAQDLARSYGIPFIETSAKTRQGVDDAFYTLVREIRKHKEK
Sequence of KRAS G12D (P62937 whole entry): as the sequence (P62937 whole entry) above
Sequence of K-Ras G12C (P01116-2 other isoform, or with tags, fused parts or gaps G12C): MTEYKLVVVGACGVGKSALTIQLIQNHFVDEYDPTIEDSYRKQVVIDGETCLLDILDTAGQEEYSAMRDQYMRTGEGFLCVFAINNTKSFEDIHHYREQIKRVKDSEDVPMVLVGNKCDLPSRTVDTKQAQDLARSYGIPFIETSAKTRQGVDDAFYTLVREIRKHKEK
Sequence of K-Ras G12C (P62937 whole entry): as the sequence (P62937 whole entry) above
Sequence of KRAS G12V (P01116-2 other isoform, or with tags, fused parts or gaps G12V): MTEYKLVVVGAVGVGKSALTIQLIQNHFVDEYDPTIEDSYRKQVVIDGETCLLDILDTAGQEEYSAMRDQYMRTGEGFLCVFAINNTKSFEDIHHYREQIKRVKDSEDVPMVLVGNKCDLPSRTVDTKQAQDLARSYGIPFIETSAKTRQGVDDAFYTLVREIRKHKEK
Sequence of KRAS G12V (P62937 whole entry): as the sequence (P62937 whole entry) above
Sequence of KRAS G12S (P01116-2 other isoform, or with tags, fused parts or gaps G12S): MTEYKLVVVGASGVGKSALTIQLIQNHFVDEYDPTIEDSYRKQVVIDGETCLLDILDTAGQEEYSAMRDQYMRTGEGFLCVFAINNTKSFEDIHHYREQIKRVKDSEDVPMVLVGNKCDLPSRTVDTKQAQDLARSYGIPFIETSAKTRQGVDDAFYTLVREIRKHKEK
Sequence of KRAS G12S (P62937 whole entry): as the sequence (P62937 whole entry) above
Sequence of NRAS G12C (P01111 whole entry G12C): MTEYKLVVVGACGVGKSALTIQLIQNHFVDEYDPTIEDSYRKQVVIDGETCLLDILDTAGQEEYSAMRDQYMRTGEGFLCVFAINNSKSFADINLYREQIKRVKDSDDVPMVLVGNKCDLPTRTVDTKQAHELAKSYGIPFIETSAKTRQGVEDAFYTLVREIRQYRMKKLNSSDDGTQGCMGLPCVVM
Sequence of NRAS G12C (P62937 whole entry): as the sequence (P62937 whole entry) above
Sequence of KRAS WT (P01116-2 other isoform, or with tags, fused parts or gaps): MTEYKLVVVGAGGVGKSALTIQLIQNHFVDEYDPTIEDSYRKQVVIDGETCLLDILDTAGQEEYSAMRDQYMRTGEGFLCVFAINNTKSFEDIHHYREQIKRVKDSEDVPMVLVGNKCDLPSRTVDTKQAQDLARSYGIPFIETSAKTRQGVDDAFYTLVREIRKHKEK
Sequence of KRAS WT (P62937 whole entry): as the sequence (P62937 whole entry) above

As to `CCn1c(-c2cncnc2)c2c3cc(ccc31)-c1cc(O)cc(c1)C[C@H](NC(=O)[C@H](C(C)C)N(C)C(=O)[C@H]1CCN(C(=O)C#CCN3CCOCC3)C1)C(=O)N1CCC[C@H](N1)C(=O)OCC(C)(C)C2` [Example A176], the pEC50 in test [1] is greater than 5.30. Besides, the pIC50 on KRAS WT was less than 5.00; at KRAS G12D, less than 5.00; on NRAS G12C, greater than 8.00; on K-Ras G12C it was greater than 8.00; on K-Ras G13C it was 5.00 to 6.00; in the test with NCI-H358 (K-Ras G12C), 7.00 to 8.00. Also, the values for the pIC50 at KRAS G12S, at KRAS G12V and at KRAS G13D were 5.00 to 6.00, 5.00 to 6.00 and less than 5.00, respectively.

For the molecule `CCn1c(-c2cncnc2)c2c3cc(ccc31)-c1csc(n1)C[C@H](NC(=O)[C@H](C(C)C)N(C)C(=O)[C@H]1CCN(C(=O)C#CCN3CCOCC3)C1)C(=O)N1CCC[C@H](N1)C(=O)OCC(C)(C)C2` [Example A177], in [1], the pEC50 was greater than 5.30. The pIC50 at KRAS WT was less than 5.00; on KRAS G12D it was less than 5.00; on NRAS G12C it was 6.00 to 7.00; on K-Ras G12C it was 6.00 to 7.00; at K-Ras G13C, less than 5.00; in the test with NCI-H358 (K-Ras G12C), 6.00 to 7.00. Also, the pIC50 on KRAS G12S, on KRAS G12V and on KRAS G13D was less than 5.00 each time.

Take `C/C=C(\C#N)C(=O)N1CC[C@H](C(=O)N(C)[C@H](C(=O)N[C@H]2Cc3cc(O)cc(c3)-c3ccc4c(c3)c(c(-c3cccnc3COC)n4CC)CC(C)(C)COC(=O)[C@@H]3CCCN(N3)C2=O)C(C)C)C1` [Example A178]: in test [1], the pEC50 was greater than 5.30. In addition, the pIC50 on KRAS WT was 5.00 to 6.00; on KRAS G12D, 5.00 to 6.00; on NRAS G12C, 7.00 to 8.00; at K-Ras G12C, 7.00 to 8.00; on K-Ras G13C it was 7.00 to 8.00; with NCI-H358 (K-Ras G12C), less than 6.00. Also, the figures for the pIC50 at KRAS G12S, on KRAS G12V and at KRAS G13D were 6.00 to 7.00, 6.00 to 7.00 and 5.00 to 6.00, respectively.

In the case of `C=CC(=O)N1CC[C@@H](C(=O)N(C)[C@H](C(=O)N[C@H]2Cc3cc(O)cc(c3)-c3ccc4c(c3)c(c(-c3cncnc3)n4CC)CC(C)(C)COC(=O)[C@@H]3CCCN(N3)C2=O)C(C)C)O1` [Example A179], the pEC50 in [1] is greater than 5.30. Also, the pIC50 on KRAS WT is 5.00 to 6.00; on KRAS G12D, 5.00 to 6.00; at NRAS G12C, 7.00 to 8.00; on K-Ras G12C, 7.00 to 8.00; at K-Ras G13C, 6.00 to 7.00; with NCI-H358 (K-Ras G12C), less than 6.00. Moreover, the pIC50 on KRAS G12S, on KRAS G12V and at KRAS G13D was 5.00 to 6.00 throughout.

In the case of `C=CC(=O)N1CC[C@H](C(=O)N(C)[C@H](C(=O)N[C@H]2Cc3cc(O)cc(c3)-c3ccc4c(c3)c(c(-c3cncnc3)n4CC)CC(C)(C)COC(=O)[C@@H]3CCCN(N3)C2=O)C(C)C)O1` [Example A180], the pEC50 in test [1] is greater than 5.30. Moreover, the pIC50 at KRAS WT is 6.00 to 7.00; at KRAS G12D, 5.00 to 6.00; at NRAS G12C, 6.00 to 7.00; on K-Ras G12C, 6.00 to 7.00; at K-Ras G13C, 6.00 to 7.00; in the test on NCI-H358 (K-Ras G12C), less than 6.00. In addition, the pIC50 was 5.00 to 6.00 at KRAS G12S, 6.00 to 7.00 on KRAS G12V and 5.00 to 6.00 on KRAS G13D.

As for `CCn1c(-c2cncnc2)c2c3cc(ccc31)-c1cccc(c1)C[C@H](NC(=O)[C@H](C(C)C)N(C)C(=O)[C@H]1CCN(C(=O)C#CCN3CCOCC3)C1)C(=O)N1CCC[C@H](N1)C(=O)OCC(C)(C)C2` [Example A185], the pEC50 in [1] was greater than 5.30. Moreover, the pIC50 at KRAS WT is less than 5.00; on KRAS G12D it was less than 5.00; on NRAS G12C it was 6.00 to 7.00; at K-Ras G12C, 6.00 to 7.00; at K-Ras G13C, less than 5.00; in the test with NCI-H358 (K-Ras G12C), 6.00 to 7.00. For the same molecule, the pIC50 at KRAS G12S, at KRAS G12V and on KRAS G13D was less than 5.00 throughout.
